Test system: not listed separately
Experiment: in vivo
Design: species or system SD rats
Settings: male, SD, rat, po, 2 mg/kg
Procedure: Instrumentation: SCIEX Triple Quad 6500+ triple quadrupole liquid chromatography-mass spectrometry system (LC-MS/MS), operating software is Analyst 1.7.2 (Applied Biosystems, USA); ExionLC liquid chromatography system; Microsoft Excel was used for data calculation and processing. Pharmacokinetic parameters were calculated using the statistical moment method with WinNonlin 8.2 software. Key kinetic parameters included Tmax, T1/2, Cmax, AUC0-24 h etc. Column: Synergi 4 μm Fusion-RP 80 Å Luna C18 2 mm*50 mm, 4 μm; Column temperature: 40° C.; Mobile phase A: Water (0.1% formic acid); Mobile phase B: Acetonitrile; Flow rate: 0.8 mL/min; Gradient elution is adopted, the elution gradient is 0.10 min: 15% B; 1.60 min: 95% B; 1.90 min: 95% B; 1.91 min: 15% B; 2.20 min: 15% B. Injection volume: 1 μL.
Animals: 3 male SD rats with a weight range of 200-220 g were purchased and kept in the laboratory of the Experimental Animal Center for 3 days and then used. They were fasted for 12 hours predose and 4 hours after dosing. Drinking water was free during the test. After the rats were gavage, blood samples were taken according to the established time point.
Solvent: 0.4% ethanol+0.4% Tween80+99.2% (0.5% methylcellulose M450). Preparation of the solution for intragastric administration: Compounds were accurately weighed and added to the solvent. The mixture was then subjected to vortex mixing and sonication until a homogeneous suspension was achieved, thereby preparing medicinal solutions of the desired concentrations.
Compound samples: Typically, multiple structurally analogous compounds (with molecular weights differing by more than 2 units) were accurately weighed and administered together (cassette PK). This approach allows for the simultaneous screening of multiple compounds and comparison of their oral absorption rates. Single compound administration was also employed to study the pharmacokinetics of drug samples in rats.
After intragastric administration, blood was collected from the jugular vein at 0.25, 0.5, 1, 2, 4, 8, 10 and 24 hours. Transfer 20 μL of plasma sample (for blank samples and internal standard blank samples, add 20 μL of blank plasma) to a 1.5 mL centrifuge tube, add 200 μL of internal standard solution (50% methanol in acetonitrile (concentration 100 ng/mL)) (for Double blank samples, add 200 μL of 50% methanol in acetonitrile solution). Vortex the samples for 5 minutes, then centrifuge at 14000 rpm and 4° C. for 5 minutes. Transfer 80 μL and add to 80 μL of water, mix uniformly, and submit for LC-MS/MS analysis.
The compounds were accurately weighed to prepare different concentrations, and quantitative analysis on mass spectrometry was performed to establish a standard curve, and then the concentration of the above-mentioned compound in the plasma was tested to obtain its concentration at different time points. All measurement data were collected and processed by relevant software, and the statistical moment method was used to calculate the pharmacokinetic parameters (mainly including kinetic parameters Tmax, T1/2, Cmax, AUC0-24 h etc).

AUC(0-t)	Cmax	Tmax	half-life	SMILES
62.7 ng·h/mL	14.5 ng/mL	4 h	93.6 min	CCOc1cncc(-c2ccc(NC(=O)C3(c4ccnc(NS(=O)(=O)C5CC5)n4)CCC(=C(C)C4COC4)CC3)nc2)n1 (stereo not shown) [Compound 51]

Same assay, conditions: male, SD, rat, po, 3 mg/kg

AUC(0-t)	Cmax	Tmax	half-life	SMILES
417 ng·h/mL	359 ng/mL	0.25 h	104 min	CCOc1cncc(-c2ccc(NC(=O)C3(c4ccnc(NS(=O)(=O)C5CC5)n4)CCC(=CCO)CC3)nc2)n1 (stereo not shown) [Compound 5]

Test system: Jurkat cells
Experiment: Inhibition of Jurkat cell proliferation (CellTiter-Glo, 72 hours)
Assay type: cell-based
Settings: Homo sapiens; Jurkat cells, 72 hours, CellTiter-Glo; read-out: Jurkat (IC50)
Procedure: Select Jurkat cells in good growth condition and digest them with trypsin. Add fresh culture medium, mix thoroughly, and centrifuge at 1000 rpm for 5 minutes. Seed the cells into a 96-well plate at a density of 10,000 cells per well, and incubate overnight in a 37° C. incubator. On the following day, take out of the culture plate and treat the cells with compounds prepared in a five-fold serial dilution. Return the plate to the 37° C. incubator and continue incubation for 72 hours.
After incubation, bring out the cell culture plate and equilibrate it to room temperature. Add 100 μL of CellTiter-Glo reagent to each well, shake in the dark for 2 minutes, and incubate for 10 minutes. Measure the luminescence using an Enspire plate reader. Calculate the inhibition rate using the following formula: Inhibition rate (%)=(1−(RLU_compound−RLU_blank)/(RLU_DMSO−RLU_blank))×100%. Plot the dose-response curve and calculate the IC50 value using XLFit.

SMILES	IC50
CCOc1cncc(-c2ccc(NC(=O)C3(c4ccnc(NS(=O)(=O)C5CC5)n4)CCC(=CCOC)CC3)nc2)n1 (single isomer, unassigned) [Compound 18]	< 50 nM
CCOc1cncc(-c2ccc(NC(=O)C3(c4ccnc(NS(=O)(=O)C5CC5)n4)CCC(=C(C)C)CC3)nc2)n1 (stereo not shown) [Compound 2]	< 50 nM
O=C(Nc1ccc(-c2cncc(OC3CC(=C(F)F)C3)n2)cn1)C1(c2ccnc(NS(=O)(=O)C3CC3)n2)CCOCC1 (stereo not shown) [Compound 7]	< 750 nM
CCOc1cncc(-c2ccc(NC(=O)C3(c4ccnc(NS(=O)(=O)C5CC5)n4)CCC(=CC#N)CC3)nc2)n1 (stereo not shown) [Compound 8]	< 15 nM
CCOc1cncc(-c2ccc(NC(=O)C3(c4ccnc(NS(=O)(=O)C5CC5)n4)CCC(=CCN4CCOCC4)CC3)nc2)n1 (stereo not shown) [Compound 11]	< 15 nM
CCOc1cncc(-c2ccc(NC(=O)C3(c4ccnc(NS(=O)(=O)C5CC5)n4)CCC(=CCOC)CC3)nc2)n1 (stereo not shown) [Compound 17]	< 200 nM
CCOc1cncc(-c2ccc(NC(=O)C3(c4ccnc(NS(=O)(=O)C5CC5)n4)CCC(=CCc4ccccc4)CC3)nc2)n1 (stereo not shown) [Compound 21]	< 1000 nM
CCOc1cncc(-c2ccc(NC(=O)C3(c4ccnc(NS(=O)(=O)C5CC5)n4)CCN(c4cccnc4)CC3)nc2)n1 [Compound 25]	< 30 nM
CCOc1cncc(-c2ccc(NC(=O)C3(c4ccnc(NS(=O)(=O)C5CC5)n4)CCN(c4ccncc4)CC3)nc2)n1 [Compound 35]	< 200 nM
CCOc1cncc(-c2ccc(NC(=O)C3(c4ccnc(NS(=O)(=O)C5CC5)n4)CCC(=CC(N)=O)CC3)nc2)n1 (stereo not shown) [Compound 40]	< 200 nM
CCOc1cncc(-c2ccc(NC(=O)C3(c4ccnc(NS(=O)(=O)C5CC5)n4)CCC(=CCN)CC3)nc2)n1 (stereo not shown) [Compound 41]	< 100 nM
CCOc1cncc(-c2ccc(NC(=O)C3(c4ccnc(NS(=O)(=O)C5CC5)n4)CCC(=Cc4ccoc4)CC3)nc2)n1 (stereo not shown) [Compound 42]	< 50 nM
CCOC(=O)C(F)=C1CCC(C(=O)Nc2ccc(-c3cncc(OCC)n3)cn2)(c2ccnc(NS(=O)(=O)C3CC3)n2)CC1 (stereo not shown) [Compound 43]	< 50 nM
CCOc1cncc(-c2ccc(NC(=O)C3(c4ccnc(NS(=O)(=O)C5CC5)n4)CCC(=C(F)C#N)CC3)nc2)n1 (stereo not shown) [Compound 49]	< 50 nM
CCOc1cncc(-c2ccc(NC(=O)C3(c4ccnc(NS(=O)(=O)C5CC5)n4)CCC(=Cc4ccsc4)CC3)nc2)n1 (stereo not shown) [Compound 53]	< 100 nM
CCOc1cncc(-c2ccc(NC(=O)C3(c4ccnc(NS(=O)(=O)C5CC5)n4)CCC(=CC(C)(C)O)CC3)nc2)n1 (stereo not shown) [Compound 57]	< 50 nM
CCOc1cncc(-c2ccc(NC(=O)C3(c4ccnc(NS(=O)(=O)C5CC5)n4)CCC(=CC4CC(O)C4)CC3)nc2)n1 (stereo not shown) [Compound 59]	< 15 nM
CCOc1cncc(-c2ccc(NC(=O)C3(c4ccnc(NS(=O)(=O)C5CC5)n4)CCC(=CC(C)=O)CC3)nc2)n1 (stereo not shown) [Compound 60]	< 30 nM
CCOc1cncc(-c2ccc(NC(=O)C3(c4ccnc(NS(=O)(=O)C5CC5)n4)CCC(=C(F)C(C)=O)CC3)nc2)n1 (stereo not shown) [Compound 61]	< 50 nM
CCOc1cncc(-c2ccc(NC(=O)C3(c4ccnc(NS(=O)(=O)C5CC5)n4)CCC4(CC3)CC(=C(F)F)C4)nc2)n1 (stereo not shown) [Compound 64]	< 50 nM
CCOc1cncc(-c2ccc(NC(=O)C3(c4nccc(NS(=O)(=O)C5CC5)n4)CCC(=C(F)F)CC3)nc2)n1 (stereo not shown) [Compound 66]	< 50 nM
CCOc1cncc(-c2cnc(NC(=O)C3(c4ccnc(NS(=O)(=O)C5CC5)n4)CCC(=C(F)F)CC3)c(F)c2)n1 (stereo not shown) [Compound 71]	< 200 nM
CCOc1cncc(-c2cnc(C(=O)NC3(c4ccnc(NS(=O)(=O)C5CC5)n4)CCC(=C(F)F)CC3)s2)n1 (stereo not shown) [Compound 72]	< 200 nM
CCOc1cncc(-c2ccc(NC(=O)C3(c4csc(NS(=O)(=O)C5CC5)n4)CCC(=C(F)F)CC3)nc2)n1 (stereo not shown) [Compound 73]	< 30 nM

The remaining lines, values ahead:

IC50	SMILES
< 15 nM	CCOc1cncc(-c2ccc(NC(=O)C3(c4ccnc(NS(=O)(=O)C5CC5)n4)CCC(=CCO)CC3)nc2)n1 (stereo not shown) [Compound 5]
< 100 nM	CCOc1cncc(-c2ccc(NC(=O)C3(c4ccnc(N(C)S(=O)(=O)C5CC5)n4)CCC(=CCO)CC3)nc2)n1 (stereo not shown) [Compound 6]
< 50 nM	C=C1CCC(C(=O)Nc2ccc(-c3cncc(OCC)n3)cn2)(c2ccnc(NS(=O)(=O)C3CC3)n2)CC1 [Compound 9]
< 200 nM	CCOc1cncc(-c2ccc(NC(=O)C3(c4ccnc(NS(=O)(=O)C5CC5)n4)CC(=CF)C3)nc2)n1 (stereo not shown) [Compound 20]
< 1000 nM	CCOc1cncc(-c2ccc(NC(=O)C(=C3CCOCC3)c3ccnc(NS(=O)(=O)C4CC4)n3)nc2)n1 [Compound 33]
< 30 nM	CCOc1cncc(-c2ccc(NC(=O)C3(c4ccnc(NS(=O)(=O)C5CC5)n4)CCC(=Cc4ccccn4)CC3)nc2)n1 (stereo not shown) [Compound 38]
< 30 nM	CCOc1cncc(-c2ccc(NC(=O)C3(c4ccnc(NS(=O)(=O)C5CC5)n4)CCC(=C(C)C4COC4)CC3)nc2)n1 (stereo not shown) [Compound 51]
< 50 nM	CCOc1cncc(-c2ccc(NC(=O)C3(c4ccnc(NS(=O)(=O)C5CC5)n4)CCC(=Cc4cncnc4)CC3)nc2)n1 (stereo not shown) [Compound 56]
< 50 nM	CCOc1cncc(-c2ccc(NC(=O)C3(c4ccnc(NS(=O)(=O)C5CC5)n4)CCC(=C(F)F)CC3)c(F)c2)n1 (stereo not shown) [Compound 65]

Molecular target: T1, hCTPS1 enzyme (Homo sapiens, UniProt P17812)
T1 sequence (P17812 1-591): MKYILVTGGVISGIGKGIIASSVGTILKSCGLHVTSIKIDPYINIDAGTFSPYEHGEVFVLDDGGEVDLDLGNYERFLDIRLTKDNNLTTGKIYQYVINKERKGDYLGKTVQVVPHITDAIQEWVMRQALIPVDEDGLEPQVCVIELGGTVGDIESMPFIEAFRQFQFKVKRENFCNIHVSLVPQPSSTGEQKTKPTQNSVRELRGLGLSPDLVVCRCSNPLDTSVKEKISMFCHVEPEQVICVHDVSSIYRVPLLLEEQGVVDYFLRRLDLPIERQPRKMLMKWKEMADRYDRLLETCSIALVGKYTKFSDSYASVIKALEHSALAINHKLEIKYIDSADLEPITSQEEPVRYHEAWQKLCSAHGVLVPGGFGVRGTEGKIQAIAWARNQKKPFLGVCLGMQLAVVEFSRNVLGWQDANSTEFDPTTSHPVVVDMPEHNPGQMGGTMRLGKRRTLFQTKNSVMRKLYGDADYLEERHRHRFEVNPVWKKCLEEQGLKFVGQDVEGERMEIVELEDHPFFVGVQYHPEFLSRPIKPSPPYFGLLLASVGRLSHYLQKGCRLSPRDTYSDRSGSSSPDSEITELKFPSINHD
Experiment: Inhibition of CTPS1 enzyme activity (ADP-Glo method)
Assay type: biochemical
Settings: hCTPS1, 90 min reaction at 25° C.
Procedure: The enzyme activity of CTPS1 was tested using the ADP-Glo method. Compounds were serially diluted in DMSO with 3-fold gradients across ten concentrations. Transfer 0.1 μL of diluted compound to a 384-well plate, centrifuge at 1000 rpm for 1 min. Add 2.5 μL of hCTPS1 enzyme working solution, centrifuge at 1000 rpm for 1 min, and incubate at 25° C. for 10 min. Add 2.5 μL of ATP & UTP solution and incubate at 25° C. for 10 min. Add 5 μL of substrate solution to initiate the reaction and incubate at 25° C. for 90 min. Add 10 μL of ADP-Glo solution to the 384-well plate, centrifuge at 1000 rpm for 1 min, incubate at 25° C. for 40 min, add 20 μL of detection solution, centrifuge at 1000 rpm for 1 min, and incubate at 25° C. for 60 min. […] were read using a BMG microplate reader. Inhibition rate (%) was calculated as follows: Inhibition rate (%)=[(DMSO control well signal−Compound well signal)/(DMSO control well signal−Blank control well signal)]×100%. IC50 values for compounds were analyzed by nonlinear regression in XLFit 5.5.0 software using the formula: Y=Bottom+(Top−Bottom)/(1+10^((LogIC50−X)*HillSlope)) where Y is the inhibition rate and X is the log value of compound concentration.

IC50	SMILES
< 50 nM	CCOc1cncc(-c2ccc(NC(=O)C3(c4ccnc(NS(=O)(=O)C5CC5)n4)CCC(=CCOC)CC3)nc2)n1 (single isomer, unassigned) [Compound 18]
< 50 nM	CCOc1cncc(-c2ccc(NC(=O)C3(c4ccnc(NS(=O)(=O)C5CC5)n4)CCC(=C(C)C)CC3)nc2)n1 (stereo not shown) [Compound 2]
< 25 nM	CCOc1cncc(-c2ccc(NC(=O)C3(c4ccnc(NS(=O)(=O)C5CC5)n4)CCC(=CCN4CCOCC4)CC3)nc2)n1 (stereo not shown) [Compound 11]
< 200 nM	CCOc1cncc(-c2ccc(C(=O)NC3(c4ccnc(NS(=O)(=O)C5CC5)n4)CCC(=C(F)F)CC3)nc2)n1 (stereo not shown) [Compound 70]

SMILES	IC50
CCOc1cncc(-c2ccc(NC(=O)C3(c4ccnc(NS(=O)(=O)C5CC5)n4)CCC(=CC#N)CC3)nc2)n1 (stereo not shown) [Compound 8]	< 50 nM

Source: US20260226026A1, “COMPOUND AS CTPS1 INHIBITOR” (Hangzhou Innogate Pharma Co., Ltd., priority 2023, published 2026)
